Reference: BindingDB's records for doi:10.1016/j.bmc.2012.03.044 (University of Mansoura, 2012)

Molecular target: T1, Prostaglandin G/H synthase 1 (Ovis aries, UniProt P05979)
T1 sequence (P05979 whole entry): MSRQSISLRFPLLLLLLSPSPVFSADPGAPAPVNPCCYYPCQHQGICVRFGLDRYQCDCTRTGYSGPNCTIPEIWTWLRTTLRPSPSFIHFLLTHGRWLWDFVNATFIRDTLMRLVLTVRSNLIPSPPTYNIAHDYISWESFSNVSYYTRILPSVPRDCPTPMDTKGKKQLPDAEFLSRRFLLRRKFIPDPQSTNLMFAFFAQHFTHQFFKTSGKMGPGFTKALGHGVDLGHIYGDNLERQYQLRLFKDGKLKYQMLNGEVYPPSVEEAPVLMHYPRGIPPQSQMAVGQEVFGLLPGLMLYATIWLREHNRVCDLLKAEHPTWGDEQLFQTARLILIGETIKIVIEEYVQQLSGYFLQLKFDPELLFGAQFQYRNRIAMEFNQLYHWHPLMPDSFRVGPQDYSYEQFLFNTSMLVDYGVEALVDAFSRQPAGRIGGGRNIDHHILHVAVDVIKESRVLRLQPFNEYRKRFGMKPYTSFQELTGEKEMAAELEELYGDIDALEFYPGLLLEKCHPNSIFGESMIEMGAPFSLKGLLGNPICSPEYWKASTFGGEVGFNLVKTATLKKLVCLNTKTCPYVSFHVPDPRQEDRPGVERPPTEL
Assay: Inhibition of ovine COX1 by enzyme immuno assay

SMILES	IC50 [µM]
O=C1Nc2ccc(F)cc2C12CC(c1ccc(Br)cc1)N=N2 (configuration not stated)	> 50
Cc1ccc(C2CC3(N=N2)C(=O)Nc2ccc(F)cc23)cc1 (configuration not stated)	> 50
